This passage reports IC50 results from ChEMBL document CHEMBL1158742, “Production of 8-demethylgeldanamycin and 4,5-epoxy-8-demethylgeldanamycin from a recombinant strain of Streptomyces hygroscopicus” (J Nat Prod, 2005).

For the experiment, the system named is SK-BR-3. Nature of the experiment: Cytotoxicity against human SKBR3 cells after 72 hrs by celltiter-Glo assay. Format: functional, cell-based. To be noted: SK-BR-3, 72 h. On the technique in general: In ATP-based viability assays light output follows the ATP content of the culture.
As to `COC1=C2C[C@@H](C)C[C@H](OC)[C@H](O)[C@@H](C)/C=C/[C@H](OC(N)=O)[C@@H](OC)/C=C\C=C(/C)C(=O)NC(=CC1=O)C2=O`, inhibition was half-maximal at 481 nM (IC50).

`COC1=C2C[C@@H](C)C[C@H](OC)[C@H](O)[C@@H](C)/C=C/[C@H](OC(N)=O)[C@@H](OC)[C@@H]3O[C@@H]3/C=C(\C)C(=O)NC(=CC1=O)C2=O`: the IC50 (usually the concentration that inhibits the measured activity by half) came to 280 nM.

In the case of `C=CCNC1=C2C[C@@H](C)C[C@H](OC)[C@H](O)[C@@H](C)/C=C(\C)[C@H](OC(N)=O)[C@@H](OC)/C=C\C=C(/C)C(=O)NC(=CC1=O)C2=O` [TANESPIMYCIN], the IC50 came out at 27 nM.
